From US20060052375A1, “Bis-alkylbenzylamines” (priority 2002, published 2006)

What was measured:
Assay type in all cases: cell-based
[1] = tested on: Staphylococcus aureus ATCC 6538; experiment: Minimum inhibiting concentration (MIC value) in microtitre plates; design: unit not given here; details: serial dilution 1:2, 48 hours at 37° C., <20% growth compared with growth control
Protocol: (§1) Determination of the Minimum Inhibiting Concentration (MIC Value) in Microtitre Plates Nutrient Medium: Casein/soybean flour peptone bouillon for the preparation of the precultures of the test bacteria and yeast. Examples of Test Organisms: Bacteria: Escherichia coli ATCC 10536 (=EC) Staphylococcus aureus ATCC 6538(=SA) Procedure: The test substances are predissolved in dimethyl sulfoxide (DMSO) and tested in a serial dilution of 1:2. Bacteria and yeast are cultured overnight in CASO bouillon. All test organism suspensions are adjusted to an organism count of 1-5×10^6 CFU/ml with 0.85% sodium chloride solution. The test substances are prepipetted into microtitre plates in an amount of 8 μl per well. The previously adjusted organism suspensions are diluted 1:100 in CASO bouillon and added to the test substances in an amount of 192 μl per well. The test batches are incubated for 48 hours at 37° C. After incubation, the growth is determined by reference to the turbidity of the test batches (optical density) at 620 nm in a microplate reader. The minimum inhibiting concentration (MIC value) is the concentration of substance at which an appreciable inhibition of the growth (<20% growth compared with the growth control) of the test organisms is ascertained. Three microtitre plates are used for each test organism and substance concentration.

[2] = tested on: Escherichia coli ATCC 10536; experiment: as above; design: unit not given here; details: serial dilution 1:2, 48 hours at 37° C., <20% growth compared with growth control
Protocol: as §1

[3] = tested on: Salmonella choleraesuis ATCC 9184; experiment: MIC in agar incorporation test; details: GC purity 88%
Protocol: (§2) Determination of the Minimum Inhibiting Concentration of the Compound of Formula (3) in Respect of a Wider Spectrum of Organisms The compound of formula (3) (see Table 1; GC purity 88%; prepared in accordance with Example 1) is tested on the microorganisms indicated in Table 3. The test for determining the minimum inhibiting concentration is effected in an agar incorporation test.

[4] = tested on: Aspergillus niger ATCC 6275; experiment: MIC in agar incorporation test; details: GC purity 88%
Protocol: as §2

[5] = tested on: Staphylococcus aureus ATCC 6538; experiment: MIC in agar incorporation test; details: GC purity 88%
Protocol: as §2

[6] = tested on: Propionibacterium acnes ATCC 6919; experiment: MIC in agar incorporation test; details: GC purity 88%
Protocol: as §2

[7] = tested on: Candida albicans ATCC 10231; experiment: MIC in agar incorporation test; details: GC purity 88%
Protocol: as §2

[8] = tested on: Corynebacterium xerosis ATCC 373; experiment: MIC in agar incorporation test; details: GC purity 88%
Protocol: as §2

[9] = tested on: Pseudomonas aeruginosa ATCC 15442; experiment: MIC in agar incorporation test; details: GC purity 88%
Protocol: as §2

[10] = tested on: Proteus vulgaris ATCC 6896; experiment: MIC in agar incorporation test; details: GC purity 88%
Protocol: as §2

[11] = tested on: C. minutissimum ATCC 23348; experiment: MIC in agar incorporation test; details: GC purity 88%
Protocol: as §2

[12] = tested on: Escherichia coli ATCC 10536; experiment: MIC in agar incorporation test; details: GC purity 88%
Protocol: as §2

[13] = tested on: Klebsiella pneumoniae ATCC 4352; experiment: MIC in agar incorporation test; details: GC purity 88%
Protocol: as §2

[14] = tested on: Staphylococcus aureus ATCC 9144; experiment: MIC in agar incorporation test; details: GC purity 88%
Protocol: as §2

[15] = tested on: Escherichia coli NCTC 8196; experiment: MIC in agar incorporation test; details: GC purity 88%
Protocol: as §2

[16] = tested on: Staphylococcus epidermidis ATCC 12228; experiment: MIC in agar incorporation test; details: GC purity 88%
Protocol: as §2

| SMILES | MIC value ATCC 6538 [1] | MIC value ATCC 10536 [2] | also measured |
| --- | --- | --- | --- |
| CCCCC(CC)CNCc1ccc(-c2ccc(CNCC(CC)CCCC)cc2)cc1 (centres unmarked) [Compound of formula 13] | 7.5 | 7.5 | – |
| CCCNCc1ccc(-c2ccc(CNCCC)cc2)cc1 [Compound of formula 2] | 15 | 15 | – |
| CC(C)NCc1ccc(-c2ccc(CNC(C)C)cc2)cc1 [Compound of formula 7] | 15 | 30 | – |
| c1ccc(CNCc2ccc(-c3ccc(CNCc4ccccc4)cc3)cc2)cc1 [Compound of formula 15] | 120 | 120 | – |
| CCCCCCCCCCNCc1ccc(-c2ccc(CNCCCCCCCCCC)cc2)cc1 [Compound of formula 4] | 30 | 15 | – |
| CCCN(CCC)Cc1ccc(-c2ccc(CN(CCC)CCC)cc2)cc1 [Compound of formula 24] | >120 | >120 | – |
| CC(=O)N1CCN(Cc2ccc(-c3ccc(CN4CCN(C(C)=O)CC4)cc3)cc2)CC1 [Compound of formula 19] | >120 | >120 | – |
| CCCCCCCCCCCCN(C)Cc1ccc(-c2ccc(CN(C)CCCCCCCCCCCC)cc2)cc1 [Compound of formula 22] | 15 | 15 | – |
| CCCCCCCCNCc1ccc(-c2ccc(CNCCCCCCCC)cc2)cc1 [Compound of formula 3, octyl-(4′-octylaminomethyl-biphenyl-4-ylmethyl)-amine] | 7.5 | <3.75 | MIC [3]: 7.5; MIC [4]: >120; MIC [5]: 3.75; MIC [6]: 3.75; MIC [7]: >120; MIC [8]: 1.88; MIC [9]: >120; MIC [10]: >120; MIC [11]: 1.88; MIC [12]: 3.75; MIC [13]: 7.5; MIC [14]: 3.75; MIC [15]: 3.75; MIC [16]: 3.75 |
| c1ccc(CCNCc2ccc(-c3ccc(CNCCc4ccccc4)cc3)cc2)cc1 [Compound of formula 17] | 15 | 15 | – |
| c1cc(-c2ccc(CN3CCOCC3)cc2)ccc1CN1CCOCC1 [Compound of formula 18] | >120 | >120 | – |
| CCCCCCCCCCCCCNCc1ccc(-c2ccc(CNCCCCCCCCCCCCC)cc2)cc1 [Compound of formula 6] | 30 | 30 | – |
| CCC(C)NCc1ccc(-c2ccc(CNC(C)CC)cc2)cc1 (centres unmarked) [Compound of formula 8] | 15 | 60 | – |
| c1coc(CNCc2ccc(-c3ccc(CNCc4ccco4)cc3)cc2)c1 [Compound of formula 20] | >120 | >120 | – |
| CCCCCN(CCCCC)Cc1ccc(-c2ccc(CN(CCCCC)CCCCC)cc2)cc1 [Compound of formula 26] | 30 | >120 | – |
| CCCCCCCCCCCNCc1ccc(-c2ccc(CNCCCCCCCCCCC)cc2)cc1 [Compound of formula 5] | 30 | 30 | – |
| CCN(CC)Cc1ccc(-c2ccc(CN(CC)CC)cc2)cc1 [Compound of formula 23] | 15 | >120 | – |
| CCCCCCN(CCCCCC)Cc1ccc(-c2ccc(CN(CCCCCC)CCCCCC)cc2)cc1 [Compound of formula 27] | 15 | >120 | – |
| CC(C)(C)NCc1ccc(-c2ccc(CNC(C)(C)C)cc2)cc1 [Compound of formula 9] | 60 | >120 | – |
| c1cc(-c2ccc(CNC3CCCCC3)cc2)ccc1CNC1CCCCC1 [Compound of formula 16] | 60 | 120 | – |
| c1cc(-c2ccc(CN3CCCCCC3)cc2)ccc1CN1CCCCCC1 [Compound of formula 31] | 60 | 120 | – |
| c1ccc(CN(Cc2ccccc2)Cc2ccc(-c3ccc(CN(Cc4ccccc4)Cc4ccccc4)cc3)cc2)cc1 [Compound of formula 29] | >120 | >120 | – |
| CCCCCCCCN(CCCCCCCC)Cc1ccc(-c2ccc(CN(CCCCCCCC)CCCCCCCC)cc2)cc1 [Compound of formula 28] | 7.5 | 15 | – |
| CC(C)CCNCc1ccc(-c2ccc(CNCCC(C)C)cc2)cc1 [Compound of formula 11] | 30 | 30 | – |
| CC(C)CC(C)NCc1ccc(-c2ccc(CNC(C)CC(C)C)cc2)cc1 (centres unmarked) [Compound of formula 12] | 30 | 60 | – |
| CN(CCO)Cc1ccc(-c2ccc(CN(C)CCO)cc2)cc1 [Compound of formula 30] | >120 | >120 | – |
| CCCC(C)NCc1ccc(-c2ccc(CNC(C)CCC)cc2)cc1 (centres unmarked) [Compound of formula 10] | 15 | 30 | – |
| CCCCN(C)Cc1ccc(-c2ccc(CN(C)CCCC)cc2)cc1 [Compound of formula 21] | >120 | 120 | – |
| COCC(C)NCc1ccc(-c2ccc(CNC(C)COC)cc2)cc1 (centres unmarked) [Compound of formula 14] | 30 | >120 | – |
| CCCCN(CCCC)Cc1ccc(-c2ccc(CN(CCCC)CCCC)cc2)cc1 [Compound of formula 25] | >120 | >120 | – |
